Data taken from PubChem BioAssay AID248 (DTP/NCI, 2004).
“And” between values parts separate entries of the source, which are not always exact repeats. Equal values may be shown once. Toxic doses and inconclusive results are not listed. No stated cut-off is given here; in the data, active means T/C of 150% or more; inactive means T/C below 125%.

System: L1210 leukemia ip in BDF1 mice, survival T/C
Assay: NCI In Vivo Anticancer Drug Screen. Data for tumor model L1210 Leukemia (intraperitoneal) in B6D2F1 (BDF1) mice
Conditions: endpoint: mean survival time, higher = longer survival
In short: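 Transplantable tumor model; survival measured in treated vs vehicle control mice. Value = treated/control.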

[1] = dose: 100.0 mg/kg/injection, schedule: Q01DX009 (ip), vehicle: Klucel (hydroxypropylcellulose) (HPC)
[2] = dose: 100.0 mg/kg/injection, schedule: Q04DX003 (ip), vehicle: saline
[3] = dose: 200.0 mg/kg/injection, schedule: Q01DX009 (ip), vehicle: Klucel (hydroxypropylcellulose) (HPC)
[4] = dose: 200.0 mg/kg/injection, schedule: Q04DX003 (ip), vehicle: saline
[5] = dose: 100.0 mg/kg/injection, schedule: Q04DX002 (ip), vehicle: Klucel (hydroxypropylcellulose) (HPC)
[6] = dose: 200.0 mg/kg/injection, schedule: Q04DX002 (ip), vehicle: Klucel (hydroxypropylcellulose) (HPC)
[7] = dose: 400.0 mg/kg/injection, schedule: Q04DX002 (ip), vehicle: Klucel (hydroxypropylcellulose) (HPC)
[8] = dose: 400.0 mg/kg/injection, schedule: Q01DX009 (ip), vehicle: Klucel (hydroxypropylcellulose) (HPC)
[9] = dose: 50.0 mg/kg/injection, schedule: Q01DX009 (ip), vehicle: saline
[10] = dose: 100.0 mg/kg/injection, schedule: Q01DX009 (ip), vehicle: saline with Tween-80
[11] = dose: 200.0 mg/kg/injection, schedule: Q01DX009 (ip), vehicle: saline with Tween-80

Measured: T/C

O=C(NNc1ccccc1)c1ccccc1
inactive: dose: 50.0 mg/kg/injection, schedule: Q01DX009 (ip), vehicle: Klucel (hydroxypropylcellulose) (HPC) 101 % of control | [1] 101 % of control | dose: 100.0 mg/kg/injection, schedule: Q04DX003 (ip), vehicle: Klucel (hydroxypropylcellulose) (HPC) 94 % of control | [2] 100 % of control | [3] 110 % of control | dose: 200.0 mg/kg/injection, schedule: Q04DX003 (ip), vehicle: Klucel (hydroxypropylcellulose) (HPC) 107 % of control | [4] 103 % of control | dose: 400.0 mg/kg/injection, schedule: Q04DX003 (ip), vehicle: Klucel (hydroxypropylcellulose) (HPC) 100 % of control | dose: 400.0 mg/kg/injection, schedule: Q04DX003 (ip), vehicle: saline 93 % of control

NC(=S)Nc1ccncc1
inactive: [5] 92 % of control | [6] 106 % of control | [7] 95 % of control

C1=NOC2c3ccc4ccccc4c3CCC12 (stereo not given)
inactive: [1] 95 % of control | [3] 93 % of control | [8] 93 % of control

CCOC(=O)C1OC1(C)C (stereo not given)
inactive: [5] 88 % of control | [6] 103 % of control | [7] 95 % of control

O=C(O)/C=C\c1c[nH]c2nccnc12
inactive: dose: 25.0 mg/kg/injection, schedule: Q01DX009 (ip), vehicle: saline 101 % of control | dose: 25.0 mg/kg/injection, schedule: Q04DX003 (ip), vehicle: saline 117 % of control | [9] 88 % of control | dose: 50.0 mg/kg/injection, schedule: Q04DX003 (ip), vehicle: saline 115 % of control | [2] 103 % of control and 106 % of control

Cc1nc(Br)c(Br)n1C
inactive: dose: 25.0 mg/kg/injection, schedule: Q04DX002 (ip), vehicle: Klucel (hydroxypropylcellulose) (HPC) 110 % of control | dose: 50.0 mg/kg/injection, schedule: Q01DX009 (ip), vehicle: carboxymethylcellulose (CMC) 103 % of control and 104 % of control | dose: 50.0 mg/kg/injection, schedule: Q04DX002 (ip), vehicle: Klucel (hydroxypropylcellulose) (HPC) 92 % of control | dose: 100.0 mg/kg/injection, schedule: Q01DX009 (ip), vehicle: carboxymethylcellulose (CMC) 96 % of control and 118 % of control | [5] 100 % of control and 91 % of control | dose: 100.0 mg/kg/injection, schedule: Q04DX002 (ip), vehicle: carboxymethylcellulose (CMC) 105 % of control | dose: 100.0 mg/kg/injection, schedule: Q04DX003 (ip), vehicle: carboxymethylcellulose (CMC) 91 % of control | dose: 200.0 mg/kg/injection, schedule: Q01DX009 (ip), vehicle: carboxymethylcellulose (CMC) 96 % of control and 110 % of control | dose: 200.0 mg/kg/injection, schedule: Q04DX002 (ip), vehicle: carboxymethylcellulose (CMC) 97 % of control and 105 % of control | dose: 200.0 mg/kg/injection, schedule: Q04DX003 (ip), vehicle: carboxymethylcellulose (CMC) 104 % of control

O=C(Nc1ccc(CCO)cc1)Nc1cccc(Cl)c1Cl
inactive: [1] 91 % of control | [3] 91 % of control | [8] 100 % of control

CC1C(=O)C(C)C(C(=O)O)C1C (stereo not given)
inactive: [5] 100 % of control | [6] 107 % of control | [7] 93 % of control

c1cc2c3c(c1)nc(CCc1nc4cccc5c4n1CCC5)n3CCC2
inactive: dose: 25.0 mg/kg/injection, schedule: Q04DX003 (ip), vehicle: saline with Tween-80 101 % of control | dose: 50.0 mg/kg/injection, schedule: Q04DX003 (ip), vehicle: saline with Tween-80 95 % of control | dose: 100.0 mg/kg/injection, schedule: Q04DX003 (ip), vehicle: saline with Tween-80 93 % of control and 87 % of control | dose: 400.0 mg/kg/injection, schedule: Q04DX003 (ip), vehicle: saline with Tween-80 87 % of control

CCN=C(c1ccc(NC(=O)c2ccc(C(=O)Nc3ccc(C(=NCC)N(CC)C(=O)CC(C)C)cc3)cc2)cc1)N(CC)C(=O)CC(C)C
inactive: dose: 3.12 mg/kg/injection, schedule: Q01DX015 (ip), vehicle: methylcellulose (MC) 96 % of control | dose: 6.25 mg/kg/injection, schedule: Q01DX015 (ip), vehicle: methylcellulose (MC) 96 % of control | dose: 12.5 mg/kg/injection, schedule: Q01DX015 (ip), vehicle: methylcellulose (MC) 92 % of control | dose: 25.0 mg/kg/injection, schedule: Q01DX015 (ip), vehicle: methylcellulose (MC) 93 % of control | dose: 50.0 mg/kg/injection, schedule: Q01DX015 (ip), vehicle: methylcellulose (MC) 96 % of control | dose: 100.0 mg/kg/injection, schedule: Q01DX015 (ip), vehicle: methylcellulose (MC) 88 % of control | dose: 200.0 mg/kg/injection, schedule: Q01DX015 (ip), vehicle: methylcellulose (MC) 94 % of control

Cn1cc(/C=C/C(N)=O)c2nccnc21
inactive: dose: 1.56 mg/kg/injection, schedule: Q01DX009 (ip), vehicle: water 94 % of control | dose: 3.12 mg/kg/injection, schedule: Q01DX009 (ip), vehicle: water 92 % of control | dose: 6.25 mg/kg/injection, schedule: Q01DX009 (ip), vehicle: water 107 % of control | dose: 12.5 mg/kg/injection, schedule: Q01DX009 (ip), vehicle: water 103 % of control | dose: 25.0 mg/kg/injection, schedule: Q01DX009 (ip), vehicle: water 100 % of control and 110 % of control

[C-]#[N+]C(C)(C)CC(C)(C)C
inactive: dose: 18.75 mg/kg/injection, schedule: Q04DX003 (ip), vehicle: acetone 103 % of control | dose: 33.0 mg/kg/injection, schedule: Q01DX001 (ip), vehicle: Klucel (hydroxypropylcellulose) (HPC) 110 % of control | dose: 33.0 mg/kg/injection, schedule: Q01DX001 (ip), vehicle: saline 104 % of control | dose: 37.5 mg/kg/injection, schedule: Q04DX003 (ip), vehicle: acetone 109 % of control | dose: 50.0 mg/kg/injection, schedule: Q01DX001 (ip), vehicle: Klucel (hydroxypropylcellulose) (HPC) 105 % of control | dose: 50.0 mg/kg/injection, schedule: Q01DX001 (ip), vehicle: saline 106 % of control | dose: 75.0 mg/kg/injection, schedule: Q01DX001 (ip), vehicle: Klucel (hydroxypropylcellulose) (HPC) 96 % of control | dose: 75.0 mg/kg/injection, schedule: Q01DX001 (ip), vehicle: saline 104 % of control | dose: 75.0 mg/kg/injection, schedule: Q04DX003 (ip), vehicle: acetone 107 % of control | dose: 110.0 mg/kg/injection, schedule: Q04DX003 (ip), vehicle: saline 94 % of control | dose: 170.0 mg/kg/injection, schedule: Q04DX003 (ip), vehicle: saline 106 % of control

O=S(=O)(OC1CCCC1Cl)c1ccc(Br)cc1 (stereo not given)
inactive: dose: 50.0 mg/kg/injection, schedule: Q01DX009 (ip), vehicle: saline with Tween-80 93 % of control | [10] 93 % of control | [11] 86 % of control

O=C(Nc1ccc(F)c(Cl)c1)Nc1ccc(Cl)c(C(F)(F)F)c1
inactive: [10] 88 % of control | [11] 98 % of control

CCC(C)C1NC(=O)C(NC(=O)c2c3nc4c(C(=O)NC5C(=O)NC(C(C)CC)C(=O)N6CCCC6C(=O)N(C)CC(=O)N(C)C(C(C)C)C(=O)OC5C)cc([N+](=O)[O-])c(C)c4oc-3c(C)c(=O)c2N)C(C)OC(=O)C(C(C)C)N(C)C(=O)CN(C)C(=O)C2CCCN2C1=O (stereo not given)
inactive: dose: 75.0 micrograms/kg/injection, schedule: Q01DX009 (ip), vehicle: saline + alcohol 111 % of control | dose: 100.0 micrograms/kg/injection, schedule: Q01DX009 (ip), vehicle: saline + alcohol 112 % of control | dose: 200.0 micrograms/kg/injection, schedule: Q01DX009 (ip), vehicle: saline + alcohol 122 % of control | dose: 300.0 micrograms/kg/injection, schedule: Q04DX003 (ip), vehicle: saline + alcohol 107 % of control | dose: 400.0 micrograms/kg/injection, schedule: Q04DX003 (ip), vehicle: saline + alcohol 108 % of control | dose: 600.0 micrograms/kg/injection, schedule: Q04DX003 (ip), vehicle: saline + alcohol 119 % of control

CNCC(SC)c1ccc(O)c(O)c1 (stereo not given)
inactive: [9] 103 % of control | dose: 100.0 mg/kg/injection, schedule: Q01DX009 (ip), vehicle: saline 103 % of control | [2] 114 % of control | dose: 200.0 mg/kg/injection, schedule: Q01DX009 (ip), vehicle: saline 121 % of control | [4] 114 % of control

CCOC(=O)CNC1=NCCO1
inactive: [10] 91 % of control | [11] 96 % of control | dose: 400.0 mg/kg/injection, schedule: Q01DX009 (ip), vehicle: saline with Tween-80 93 % of control
